Measurements reported in BindingDB's records for doi:10.1021/jm070370z (Ligand Pharmaceuticals, 2007).

Target: T1, Glucocorticoid receptor (Homo sapiens, UniProt P04150)
T1 sequence (P04150 whole entry): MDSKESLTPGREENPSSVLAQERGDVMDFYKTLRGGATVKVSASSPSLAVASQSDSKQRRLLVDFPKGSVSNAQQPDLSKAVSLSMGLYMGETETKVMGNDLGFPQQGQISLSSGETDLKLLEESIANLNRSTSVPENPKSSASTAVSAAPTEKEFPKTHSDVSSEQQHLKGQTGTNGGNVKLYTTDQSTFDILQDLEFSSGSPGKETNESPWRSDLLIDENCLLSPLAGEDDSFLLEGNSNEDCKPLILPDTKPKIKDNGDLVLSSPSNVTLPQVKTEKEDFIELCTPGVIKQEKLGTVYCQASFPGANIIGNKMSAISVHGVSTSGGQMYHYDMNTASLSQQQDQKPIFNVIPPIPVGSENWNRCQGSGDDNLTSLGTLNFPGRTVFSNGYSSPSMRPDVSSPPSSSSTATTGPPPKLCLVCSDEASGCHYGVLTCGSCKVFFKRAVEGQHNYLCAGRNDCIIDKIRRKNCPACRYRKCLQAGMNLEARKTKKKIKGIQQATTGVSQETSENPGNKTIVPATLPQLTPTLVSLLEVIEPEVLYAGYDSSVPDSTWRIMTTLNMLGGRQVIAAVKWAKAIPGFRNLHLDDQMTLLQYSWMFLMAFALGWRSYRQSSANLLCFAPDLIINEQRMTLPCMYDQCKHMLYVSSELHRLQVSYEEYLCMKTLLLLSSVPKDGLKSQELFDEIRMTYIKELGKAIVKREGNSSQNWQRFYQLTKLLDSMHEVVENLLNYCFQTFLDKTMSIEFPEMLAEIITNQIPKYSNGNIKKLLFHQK
Test: GR-Mediated Antagonist Activity Assay and IL-6 Repression Assay
Settings: pH 7.5
Description: Potencies of compounds are reported as the concentration at which they reach half their antagonist (IC50) activity. IL-6 Repression Assay- The GR-mediated repression of IL-6 production in a human fibroblast (NHDFneo) cell line is measured with a modified ELISA assay.

Row | EC50 | IC50 | SMILES
1 | 1.4 nM | 0.6 nM | COc1c(O)ccc2c1-c1ccc3c(c1/C(=C/c1sccc1[C@@H](O)C(F)(F)F)O2)C(C)=CC(C)(C)N3 [(18Z)-12-methoxy-3,5,5-trimethyl-18-({3-[(1R)-2,2,2-trifluoro-1-hydroxyethyl]thiophen-2-yl}methylidene)-17-oxa-6-azatetracyclo[8.8.0.0^{2,7}.0^{11,16}]octadeca-1(10),2(7),3,8,11,13,15-heptaen-13-ol]
2 | 0.2 nM | 0.2 nM | COc1c(O)ccc2c1-c1ccc3c(c1/C(=C/c1sccc1[C@H](O)C(F)(F)F)O2)C(C)=CC(C)(C)N3 [(18Z)-12-methoxy-3,5,5-trimethyl-18-({3-[(1S)-2,2,2-trifluoro-1-hydroxyethyl]thiophen-2-yl}methylidene)-17-oxa-6-azatetracyclo[8.8.0.0^{2,7}.0^{11,16}]octadeca-1(10),2(7),3,8,11,13,15-heptaen-13-ol]
3 |  | 1 nM | COc1c(O)ccc2c1-c1ccc3c(c1C(=Cc1sccc1C(=O)C1CCCCC1)O2)C(C)=CC(C)(C)N3 [(18Z)-18-[(3-cyclohexanecarbonylthiophen-2-yl)methylidene]-12-methoxy-3,5,5-trimethyl-17-oxa-6-azatetracyclo[8.8.0.0^{2,7}.0^{11,16}]octadeca-1(10),2(7),3,8,11,13,15-heptaen-13-ol]
4 |  | 0.9 nM | CCCCC(O)c1ccsc1/C=C1\Oc2ccc(O)c(OC)c2-c2ccc3c(c21)C(C)=CC(C)(C)N3 (stereo unspecified) [(18Z)-18-{[3-(1-hydroxypentyl)thiophen-2-yl]methylidene}-12-methoxy-3,5,5-trimethyl-17-oxa-6-azatetracyclo[8.8.0.0^{2,7}.0^{11,16}]octadeca-1(10),2(7),3,8,11,13,15-heptaen-13-ol]
